Source: patent publication US20220183287A1, “METHODS FOR KILLING PESTS” (The United States of America, as represented by the …, priority 2020, published 2022)
Several values for one entry are separate records, joined by “and”; a condition that tells them apart may be missing. Identical values can stand only once. Marks after values point to notes of the source that are not given here.

Assays:
[1] = tested on: Heterodera glycines eggs; assay: Microwell assay: eggs immersed in compounds, hatch and activity of hatched J2; format: in vivo; conditions: 0.1%; for % Active Day 2 / % Active Day 5 / % Active Day 7: J2 hatched from immersed eggs; for Hatch Day 2 / Hatch Day 5 / Hatch Day 7: hatched J2 per well, about 35 eggs per well; for pest or weed control at 0.1 %: Heterodera glycines, 168 h, Day 7, read-out: egg hatch suppression compared with the Tween control
Procedure: (§1) All chemicals were used without further purification.
(§2) These are reported as 0.1% herein.
(§3) The nematodes were then incubated at 26° C. […] Two trials were conducted for each assay.
(§4) The assumptions of the model were checked.

[2] = tested on: M. incognita second-stage juveniles; assay: Microwell assay: previously hatched J2 immersed in compounds, activity and viability; conditions: for % Active Day 1 / % Active Day 2: previously hatched J2 in aqueous solution; for viability at 0.1 %: read-out: % Viable Day 3 rinsed
Procedure: Nematode cultures: As described in Meyer et al. (Meyer, S. L. F., et al., Nematropica, 46: 85-96 (2016)), M. incognita race 1 (originally isolated in Maryland) was maintained in a greenhouse (24° to 29° C.; natural and supplemental lighting combined for a 16-h daylength) on susceptible cayenne pepper (Capsicum annuum) TA-136′ plants. All greenhouse experiments described herein were conducted under the same conditions. Two to three months after pepper plant inoculation, egg masses were picked from roots. Eggs were separated by 5 min immersion in 0.6% sodium hypochlorite, followed by a rinse in sterile distilled water (SDW). To collect second-stage juveniles (J2) for microwell assays, the surface-sterilized eggs were placed in a hatching chamber (Spectra/Mesh Nylon Filter, openings 25-μm-diam.; Spectrum Laboratories Inc., Rancho Dominguez, Calif.) set in an autoclaved dish that was placed on a rotary shaker for 3 days at 35 rpm. For some M. incognita and H. glycines assays, 25 or […] kanamycin monosulfate (Phytotechnology Laboratories, Shawnee Mission, Kans.) was added to the hatching chamber to prevent growth of bacteria. The collected J2 were then rinsed with water to remove the kanamycin monosulfate.
(§5) Compounds for the studies were purchased from three different companies: methyl benzoate, CAS Number 93-58-3, ≥99% purity; Tween 20, CAS Number: 9005-64-5; Tween 80, CAS Number: 9005-65-6; ethyl benzoate, CAS Number: 93-89-0, natural, ≥99% purity, FCC, FG; vinyl benzoate, CAS Number: 769-78-8, ≥99% purity; n-propyl benzoate, CAS Number: 2315-68-6, 99% purity; n-butyl benzoate, CAS Number: 136-60-7, 99% purity; benzyl benzoate, CAS Number: 120-51-4, natural, ≥99% purity, FCC, FG; methyl 2-methylbenzoate, CAS Number: 89-71-4, 99% purity; methyl 2-chlorobenzoate, CAS Number: 610-96-8, ≥98% purity; methyl 2-methoxybenzoate, CAS Number: 606-45-1, 99% purity and methyl 2-nitrobenzoate, CAS Number: 606-27-9, 98% purity were purchased from Sigma-Aldrich (St. Louis, Mo.). Compounds, iso-butyl benzoate, CAS Number 120-50-3, >98% purity; n-pentyl benzoate, CAS Number: 2049-96-9, ≥98% purity; and n-hexyl benzoate, CAS Number: 6789-88-4, ≥98% purity were purchased from Alfa Aesar (Tewksbury, Mass.). The compounds methyl 3-methoxybenzoate (methyl m-anisate), CAS Number: 5368-81-0; 97% and methyl 3-methylbenzoate (methyl m-toluate), CAS Number: 99-36-5, 97% purity were purchased from TCI America (Portland, Oreg.). All chemicals were used without further purification. Deionized water (DI) containing 1% emulsifier (v/v), Tween 20 and Tween 80, at 1:1 ratio was used to make different VOCs (volatile organic compounds) water solutions and also used as blank control.
(§6) For tests with individual compounds, the concentration of each compound was 0.1% before placement into wells; the final concentration in the wells was 0.095% after addition to eggs or J2 suspended in water. These are reported as 0.1% herein. An exception was Trial 2, M. incognita J2 activity and viability (Table 2): the final concentration was 0.1% after placement in wells. Low concentrations were selected for assays of combined compounds to determine if the combinations would increase nematotoxicity.
(§7) Laboratory assays were conducted in 96-well polystyrene plates following general procedures described in Wen et al. (2019). Each well received approximately 35 J2 (for previously hatched J2 assays) or 35 eggs that each contained either a first-stage juvenile (J1) or a J2. The plates were covered with plastic adhesive sealing film (Excel Scientific, Inc., Victorville Calif.) and then with the plate lids. Parafilm (Bemis, Neenah, Wis.) was used to seal the plates. The nematodes were then incubated at 26° C. […] Following the counts on Day 2, the treatments were removed and the J2 rinsed twice with SDW and incubated in the second rinse. […] Two trials were conducted for each assay.

[3] = tested on: M. incognita eggs; assay: Microwell assay: eggs immersed in compounds, hatch and activity of hatched J2; format: in vivo, Meloidogyne incognita; conditions: 0.1%; for % Active Day 2 / % Active Day 5 / % Active Day 7: J2 hatched from immersed eggs; for Hatch Day 2 / Hatch Day 5 / Hatch Day 7: hatched J2 per well, about 35 eggs per well
Procedure: as §1, §2, §3, §4

[4] = tested on: Caenorhabditis elegans; conditions: produced by Bacillus nematocida; cited from earlier work
[5] = tested on: H. glycines second-stage juveniles; assay: Microwell assay: previously hatched J2 immersed in compounds, activity and viability; conditions: for % Active Day 1 / % Active Day 2: previously hatched J2 in aqueous solution; for viability at 0.1 %: Heterodera glycines, 72 h, read-out: % Viable Day 3 rinsed
Procedure: The isolate of H. glycines race 3, originally isolated in Maryland, was maintained on soybean (Glycine max cv. ‘Essex’). As previously described (Wen, Y., et al. Plant Disease, 103: 2191-2198 (2019)), the roots were gently rubbed in water to dislodge cysts and mature females. The egg suspensions were then poured through nested sieves (#20 over /#60; pore sizes 850 μm and 250 μm diam., respectively) into a 454 g/liter sucrose solution. After 15 min, the cysts and females and cysts that floated to the top were collected, rinsed in water, and crushed with a rubber stopper on a #60 sieve (250-μm diam. pore size) that was partially submerged in distilled water. The egg suspension was washed through nested #230 over #500 sieves (pore sizes 63 μm and 25-μm diam., respectively). The eggs were collected in distilled water, and J2 hatched as described above.
as §5, §6, §7
Statistical analyses: The data were analyzed as either a general linear model using JMP or a generalized linear model for the best distribution to fit the residual using Proc Glimmix (Sas Institute). The assumptions of the model were checked. If not met, then appropriate statistical techniques were used so that data could met the assumptions of the models. In Sas, mean comparisons were done with Sidak adjusted p-values to hold the experiment-wise error at 0.05.

[6] = tested on: C. elegans; conditions: during the first hours of incubation; cited from earlier work
[7] = tested on: X americanum adults; conditions: in vivo; cited from earlier work
[8] = tested on: M. incognita; conditions: in vivo; cited from earlier work

Compound	% Active Day 2 [1]	% Active Day 5 [1]	% Active Day 7 [1]	Hatch Day 2 [1]	Hatch Day 5 [1]	Hatch Day 7 [1]	pest or weed control at 0.1 % [1] [%]	% Active Day 1 ([2]; 0.1%)	% Active Day 2 ([2]; 0.1%)	viability at 0.1 % ([2]; Meloidogyne incognita, 72 h) [%]	% Active Day 2 [3]	% Active Day 5 [3]	% Active Day 7 [3]	Hatch Day 2 [3]	Hatch Day 5 [3]	Hatch Day 7 [3]	% Active Day 1 ([5]; 0.1%)	% Active Day 2 ([5]; 0.1%)	viability at 0.1 % [5] [%]	also measured
O=C(OCc1ccccc1)c1ccccc1 [BB, Benzyl benzoate]	15.2 ^cd %	17.0 ^cde %	13.5 ^bc %	4.1 ^cd	4.5 ^cd	4.6 ^cd	64 to 80	83.2 ^a %	83.1 ^a %	79.9	67.0 ^ab %	33.5 ^cd %	24.8 ^b %	2.6 ^cd	4.2 ^cde	4.1 ^de	66.4 ^bc %	60.1 ^abc %	41.2	% Viable Day 3 rinsed ([2]; 0.1%, after Day 2 water rinse): did not show a significant difference; nematode attraction [4]: nematode attractant; reduction in % viable J2 compared with the Tween control ([5]; 0.1%, Day 3 following water rinse): 33%
CC(=O)c1c(O)cc(O)c(C(C)=O)c1O [DAPG, 2,4-diacetylphloroglucinol]																				hatch [6]: stimulated hatch; toxicity to adults [7]: toxic; egg hatch [8]: decreased egg hatch
CCCCCCOC(=O)c1ccccc1 [nHB, n-Hexyl benzoate]	19.1 ^cd %	16.8 ^cde %	14.6 ^bc %	7.3 ^bcd	7.5 ^bcd	7.6 ^bcd		84.5 ^a %	82.4 ^c %	66.3	73.2 ^ab %	40.5 ^cd %	16.5 ^b %	11.6 ^ab	13.0 ^b	13.0 ^bc	73.2 ^ab %	63.5 ^ab %	46.2	% Viable Day 3 rinsed ([2]; in vivo): did not have a significant effect
CCCCCOC(=O)c1ccccc1 [nPeB, n-Pentyl benzoate]	4.2 ^d %	4.3 ^e %	4.2 ^c %	7.6 ^bcd	7.7 ^bcd	7.5 ^bcd		29.9 ^bc %	22.9 ^b %	16.5	31.5 ^b %	0 ^e %	0% and 0 ^c %	4.9 ^bcd		6.6 ^cde	54.0 ^c %	29.1 ^de %	28.4	nonviable (killed) J2 ([2]; in vivo): killed most of the J2
CCCOC(=O)c1ccccc1 [nPrB, n-Propyl benzoate]	2.2 ^d %	0 ^f %	0 ^d %	5.8 ^cd	5.8 ^cd	5.6 ^cd	64 to 80	0 ^f %	0 ^d %	0	0 ^c %	0 ^e %	0 ^c %	3.5 ^cd	4.0 ^cde	4.1 ^de	17.2 ^d %	10.8 ^fg %	12.1	hatch suppression compared to the Tween control ([1]; Day 2): 60%; inactive J2 that hatched from the eggs ([1]; by Day 7): 100%; mortality at 0.1 % ([2]; Meloidogyne incognita, 72 h, read-out: nonviable (killed) J2): 100%
